Measurements from patent US20130030001A1 (priority 2008, published 2013).
Structures can show the parent of a compound that is named as a salt.

Molecular target: T1, human muscarinic acetylcholine M3 receptor (Homo sapiens, UniProt P20309)
T1 construct: expressed in transfected cells; host or cells: CHO-K1 (Chinese Hamster Ovary) cell membranes
Experiment: biochemical
Format: binding
Conditions: M3 binding IC50

T1 sequence (P20309 whole entry): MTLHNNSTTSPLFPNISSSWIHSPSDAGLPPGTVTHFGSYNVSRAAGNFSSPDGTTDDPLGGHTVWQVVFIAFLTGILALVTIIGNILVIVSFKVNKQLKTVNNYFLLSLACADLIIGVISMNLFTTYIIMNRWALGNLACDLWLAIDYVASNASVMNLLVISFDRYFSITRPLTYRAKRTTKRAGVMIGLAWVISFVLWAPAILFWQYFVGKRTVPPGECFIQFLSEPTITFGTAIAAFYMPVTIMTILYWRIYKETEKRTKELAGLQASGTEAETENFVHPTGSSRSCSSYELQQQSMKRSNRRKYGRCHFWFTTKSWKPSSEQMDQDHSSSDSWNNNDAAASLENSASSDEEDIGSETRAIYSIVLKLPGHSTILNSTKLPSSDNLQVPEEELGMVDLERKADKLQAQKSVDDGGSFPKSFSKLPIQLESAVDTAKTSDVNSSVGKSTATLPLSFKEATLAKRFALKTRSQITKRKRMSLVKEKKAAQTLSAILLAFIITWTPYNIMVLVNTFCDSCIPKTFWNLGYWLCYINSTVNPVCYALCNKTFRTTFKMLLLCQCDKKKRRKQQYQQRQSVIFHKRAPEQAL

Row | SMILES | IC50
1 | O=C(O[C@H]1C[N+]2(CCCc3ccncc3)CCC1CC2)C1(c2ccccc2)CCCCCC1 [Example 61, (R)-3-(1-Phenyl-cycloheptanecarbonyloxy)-1-(3-pyridin-4-yl-propyl)-1-azonia-bicyclo[2.2.2]octane bromide] | < 2 nM
2 | O=C(C[N+]12CCC(CC1)[C@@H](OC(=O)C1(c3ccccc3)CCCCCC1)C2)Nc1ccc(Cl)cn1 [Example 45, (R)-1-[(5-Chloro-pyridin-2-ylcarbamoyl)-methyl]-3-(1-phenyl-cycloheptanecarbonyloxy)-1-azonia-bicyclo[2.2.2]octane chloride] | < 2 nM
3 | O=C(C[N+]12CCC(CC1)[C@@H](OC(=O)C1(c3ccccc3)CCCCCC1)C2)NCCOc1cccc(F)c1 [Example 34, (R)-1-{[2-(3-Fluoro-phenoxy)-ethylcarbamoyl]-methyl}-3-(1-phenyl-cycloheptanecarbonyloxy)-1-azonia-bicyclo[2.2.2]octane bromide] | 2 to 10 nM
4 | O=C(O[C@@H]1C[N+]2(CCCOc3ccccc3)CCC1CC2)C1(c2ccccc2)CCCCCC1 [Example 33, (S)-1-(3-Phenoxy-propyl)-3-(1-phenyl-cycloheptanecarbonyloxy)-1-azonia-bicyclo[2.2.2]octane formate] | 2 to 10 nM
5 | Cc1cc(NC(=O)C[N+]23CCC(CC2)[C@@H](OC(=O)C2(c4cccs4)CCCCCC2)C3)on1 [Example 7, (R)-1-[(3-Methyl-isoxazol-5-ylcarbamoyl)-methyl]-3-(1-thiophen-2-yl-cycloheptanecarbonyloxy)-1-azonia-bicyclo[2.2.2]octane bromide] | 2 to 10 nM
6 | O=C(C[N+]12CCC(CC1)[C@@H](OC(=O)C1(c3cccs3)CCCCCC1)C2)Nc1cccc(F)c1 [Example 8, (R)-1-[(3-Fluoro-phenylcarbamoyl)-methyl]-3-(1-thiophen-2-yl-cycloheptanecarbonyloxy)-1-azonia-bicyclo[2.2.2]octane bromide] | < 2 nM
7 | Cc1ccc(NC(=O)C[N+]23CCC(CC2)[C@@H](OC(=O)C2(c4ccccc4)CCCCCC2)C3)cn1 [Example 1, (R)-1-[(6-Methyl-pyridin-3-ylcarbamoyl)-methyl]-3-(1-phenyl-cycloheptanecarbonyloxy)-1-azonia-bicyclo[2.2.2]octane chloride] | < 2 nM
8 | O=C(C[N+]12CCC(CC1)[C@@H](OC(=O)C1(c3ccccc3)CCCCCC1)C2)Nc1ccncn1 [Example 22, (R)-3-(1-Phenyl-cycloheptanecarbonyloxy)-1-(pyrimidin-4-ylcarbamoylmethyl)-1-azonia-bicyclo[2.2.2]octane chloride] | < 2 nM
9 | O=C(C[N+]12CCC(CC1)[C@@H](OC(=O)C1(c3ccccc3)CCCCCC1)C2)Nc1ccccc1F [Example 23, (R)-1-[(2-Fluoro-phenylcarbamoyl)-methyl]-3-(1-phenyl-cycloheptanecarbonyloxy)-1-azonia-bicyclo[2.2.2]octane bromide] | < 2 nM
10 | O=C(C[N+]12CCC(CC1)[C@@H](OC(=O)C1(c3cccs3)CCCCCC1)C2)Nc1noc2ccccc12 [Example 10, (R)-1-(Benzo[d]isoxazol-3-ylcarbamoylmethyl)-3-(1-thiophen-2-yl-cycloheptanecarbonyloxy)-1-azonia-bicyclo[2.2.2]octane chloride] | < 2 nM
11 | O=C(C[N+]12CCC(CC1)[C@@H](OC(=O)C1(c3ccccc3)CCCCCC1)C2)Nc1ncccc1F [Example 53, (R)-1-[(3-Fluoro-pyridin-2-ylcarbamoyl)-methyl]-3-(1-phenyl-cycloheptanecarbonyloxy)-1-azonia-bicyclo[2.2.2]octane chloride] | 2 to 10 nM
12 | O=C(NCC[N+]12CCC(CC1)[C@@H](OC(=O)C1(c3ccccc3)CCCCCC1)C2)c1ccccn1 [Example 60, (R)-3-(1-Phenyl-cycloheptanecarbonyloxy)-1-{2-[(pyridine-2-carbonyl)-amino]-ethyl}-1-azonia-bicyclo[2.2.2]octane bromide] | < 2 nM
13 | Cc1cnc(NC(=O)C[N+]23CCC(CC2)[C@@H](OC(=O)C2(c4cccs4)CCCCCC2)C3)cn1 [Example 9, (R)-1-[(5-Methyl-pyrazin-2-ylcarbamoyl)-methyl]-3-(1-thiophen-2-yl-cycloheptanecarbonyloxy)-1-azonia-bicyclo[2.2.2]octane bromide] | < 2 nM
14 | O=C(C[N+]12CCC(CC1)[C@@H](OC(=O)C1(c3ccccc3)CCCCCC1)C2)Nc1c(F)cccc1F [Example 38, (R)-1-[(2,6-Difluoro-phenylcarbamoyl)-methyl]-3-(1-phenyl-cycloheptanecarbonyloxy)-1-azonia-bicyclo[2.2.2]octane bromide] | < 2 nM
15 | O=C(C[N+]12CCC(CC1)[C@@H](OC(=O)C1(c3ccccc3)CCCCCC1)C2)Nc1cc(F)cc(F)c1 [Example 35, (R)-1-[(3,5-Difluoro-phenylcarbamoyl)-methyl]-3-(1-phenyl-cycloheptanecarbonyloxy)-1-azonia-bicyclo[2.2.2]octane bromide] | 2 to 10 nM
16 | O=C(C[N+]12CCC(CC1)[C@@H](OC(=O)C1(c3ccccc3)CCCCCC1)C2)Nc1cc(F)ccc1F [Example 41, (R)-1-[(2,5-Difluoro-phenylcarbamoyl)-methyl]-3-(1-phenyl-cycloheptanecarbonyloxy)-1-azonia-bicyclo[2.2.2]octane bromide] | 2 to 10 nM

Row | SMILES | IC50
17 | Cc1ccc(NC(=O)C[N+]23CCC(CC2)[C@@H](OC(=O)C2(c4ccccc4)CCCCCC2)C3)nc1 [Example 18, (R)-1-[(5-Methyl-pyridin-2-ylcarbamoyl)-methyl]-3-(1-phenyl-cycloheptanecarbonyloxy)-1-azonia-bicyclo[2.2.2]octane chloride] | < 2 nM
18 | O=C(C[N+]12CCC(CC1)[C@@H](OC(=O)C1(c3ccccc3)CCCCCC1)C2)Nc1ccnnc1 [Example 27, (R)-3-(1-phenyl-cycloheptanecarbonyloxy)-1-(pyridazin-4-ylcarbamoylmethyl)-1-azonia-bicyclo[2.2.2]octane formate] | 2 to 10 nM
19 | O=C(C[N+]12CCC(CC1)[C@@H](OC(=O)C1(c3ccccc3)CCCCCC1)C2)Nc1cncnc1 [Example 52, (R)-3-(1-Phenyl-cycloheptanecarbonyloxy)-1-(pyrimidin-5-ylcarbamoylmethyl)-1-azonia-bicyclo[2.2.2]octane chloride] | < 2 nM
20 | N#Cc1ccc(NC(=O)C[N+]23CCC(CC2)[C@@H](OC(=O)C2(c4ccccc4)CCCCCC2)C3)nc1 [Example 51, (R)-1-[(5-Cyano-pyridin-2-ylcarbamoyl)-methyl]-3-(1-phenyl-cycloheptanecarbonyloxy)-1-azonia-bicyclo[2.2.2]octane chloride] | 2 to 10 nM
21 | Cc1ccccc1NC(=O)C[N+]12CCC(CC1)[C@@H](OC(=O)C1(c3ccccc3)CCCCCC1)C2 [Example 31, (R)-3-(1-Phenyl-cycloheptanecarbonyloxy)-1-(o-tolylcarbamoyl-methyl)-1-azonia-bicyclo[2.2.2]octane bromide] | 2 to 10 nM
22 | O=C(C[N+]12CCC(CC1)[C@@H](OC(=O)C1(c3ccccc3)CCCCCC1)C2)Nc1ccncc1 [Example 16, (R)-3-(1-Phenyl-cycloheptanecarbonyloxy)-1-(pyridin-4-ylcarbamoylmethyl)-1-azonia-bicyclo[2.2.2]octane chloride] | < 2 nM
23 | Cc1cccc(NC(=O)C[N+]23CCC(CC2)[C@@H](OC(=O)C2(c4ccccc4)CCCCCC2)C3)n1 [Example 30, (R)-1-[(6-Methyl-pyridin-2-ylcarbamoyl)-methyl]-3-(1-phenyl-cycloheptanecarbonyloxy)-1-azonia-bicyclo[2.2.2]octane chloride] | < 2 nM
24 | O=C(NCC[N+]12CCC(CC1)[C@@H](OC(=O)C1(c3ccccc3)CCCCCC1)C2)c1cnccn1 [Example 55, (R)-3-(1-Phenyl-cycloheptanecarbonyloxy)-1-{2-[(pyrazine-2-carbonyl)-amino]-ethyl}-1-azonia-bicyclo[2.2.2]octane bromide] | 2 to 10 nM
25 | O=C(O[C@H]1C[N+]2(CCOc3cccnc3)CCC1CC2)C1(c2ccccc2)CCCCCC1 [Example 29, (R)-3-(1-Phenyl-cycloheptanecarbonyloxy)-1-[2-(pyridin-3-yloxy)-ethyl]-1-azonia-bicyclo[2.2.2]octane formate] | 2 to 10 nM
26 | O=C(O[C@H]1C[N+]2(CCOc3ccc(F)cc3)CCC1CC2)C1(c2ccccc2)CCCCCC1 [Example 26, (R)-1-[2-(4-Fluoro-phenoxy)-ethyl]-3-(1-phenyl-cycloheptanecarbonyloxy)-1-azonia-bicyclo[2.2.2]octane formate] | < 2 nM
27 | O=C(C[N+]12CCC(CC1)[C@@H](OC(=O)C1(c3ccccc3)CCCCCC1)C2)Nc1noc2ccccc12 [Example 4, (R)-1-(Benzo[d]isoxazol-3-ylcarbamoylmethyl)-3-(1-phenyl-cycloheptanecarbonyloxy)-1-azonia-bicyclo[2.2.2]octane chloride] | < 2 nM
28 | O=C(C[N+]12CCC(CC1)[C@@H](OC(=O)C1(c3ccccc3)CCCCCC1)C2)Nc1cccc(C(F)(F)F)n1 [Example 43, (R)-3-(1-Phenyl-cycloheptanecarbonyloxy)-1-[(6-trifluoromethyl-pyridin-2-ylcarbamoyl)-methyl]-1-azonia-bicyclo[2.2.2]octane chloride] | 2 to 10 nM
29 | CN(C(=O)C[N+]12CCC(CC1)[C@@H](OC(=O)C1(c3ccccc3)CCCCCC1)C2)c1ccccc1 [Example 39, (R)-1-[(Methyl-phenyl-carbamoyl)-methyl]-3-(1-phenyl-cycloheptanecarbonyloxy)-1-azonia-bicyclo[2.2.2]octane formate] | 2 to 10 nM
30 | Cc1ccc(NC(=O)C[N+]23CCC(CC2)[C@@H](OC(=O)C2(c4ccccc4)CCCCCC2)C3)nn1 [Example 49, (R)-1-[(6-Methyl-pyridazin-3-ylcarbamoyl)-methyl]-3-(1-phenyl-cycloheptanecarbonyloxy)-1-azonia-bicyclo[2.2.2]octane bromide] | < 2 nM
31 | Cc1cccc(NC(=O)C[N+]23CCC(CC2)[C@@H](OC(=O)C2(c4ccccc4)CCCCCC2)C3)c1 [Example 47, (R)-3-(1-Phenyl-cycloheptanecarbonyloxy)-1-(m-tolylcarbamoyl-methyl)-1-azonia-bicyclo[2.2.2]octane bromide] | 2 to 10 nM

Same assay, conditions: pIC50

Row | SMILES | IC50
32 | Cc1ccc(NC(=O)C[N+]23CCC(CC2)[C@@H](OC(=O)C2(c4ccccc4)CCCCCC2)C3)cn1 [Example 1, (R)-1-[(6-Methyl-pyridin-3-ylcarbamoyl)-methyl]-3-(1-phenyl-cycloheptanecarbonyloxy)-1-azonia-bicyclo[2.2.2]octane chloride] | 0.794 nM
